Reference: US20250154607A1, “ISOTHERMAL AMPLIFICATION OF PATHOGENS” (priority 2021, published 2025)

Assays:
[1] = system: Chlamydia trachomatis elementary bodies; test: Lysis of Chlamydia trachomatis elementary bodies, read out by APA; details: lysis buffer 0.4% SDS, pH 2.2, 2 minutes at 78° C.; compared with heat lysis 5 minutes at 95° C.
Procedure: Elementary body lysis (˜40/reaction) was probed in this example using an APA-based assay. Elementary bodies (Acrometrix) were added to either cold chlamydia transport media (SPD containing sucrose, phosphate buffer, and glutamic acid), TE (Tris-EDTA 10-1), or lysis buffer containing 0.4% SDS, pH 2.2. The samples in TE or SDS were heated 5 minutes at 95° C. (heat lysis) or 2 minutes at 78° C. (SDS lysis), respectively. Then 5 μl (containing 40 elementary bodies) was added to “wet” APA reaction mix as above (pH 7.6 to facilitate isothermal CAdNTP activation) containing 4% cyclodextrin HP-βCD for isothermal APA (68° C.) with fluorescence from a chlamydia-specific molecular beacon collected every 15 seconds.

[2] = system: nasal ribonuclease; test: Rapid irreversibility of nasal ribonuclease inactivation (RNase alert assay); type: biochemical; details: 0.2% SDS with or without 40 mM cysteine, 60° C.; immediately diluted into 4% β-cyclodextrin
Procedure: FIG. 13 depicts data related to the rapid irreversibility of nasal ribonuclease inactivation. 5 μl concentrated nasal swab eluate in TE, an amount equivalent to 2% on a typical nasal swab, was mixed with 45 μl of either lysis buffer containing 0.2% SDS (RBS, solid line), RBS containing 40 mM cysteine (squares), or water (dotted line) all preheated to 60° C. 5 μl was immediately diluted into 45 μl 4% β-cyclodextrin to sequester detergent. The recovered RNase activity was determined with an RNase alert assay; as control for the assay, an equivalent amount of nasal swab eluate was directly added without prior treatment (X). […] Unexpectedly, the effectively irreversible inactivation of ribonucleases thus observed during the practice of this invention was virtually instantaneous (monitored by directly testing ribonuclease activity), unlike prior art methods based upon heat. Also shown in this example is that the inactivation properties described for RNase A are also attributable to ribonucleases naturally occurring in nasal exudates.

[3] = molecular target: 9° Nm™ DNA polymerase (Thermococcus sp., UniProt Q56366, E143D); test: Order-of-addition assay (APA of S. enterica DNA, SDS and hydroxypropyl β-CD); type: biochemical
Procedure: Order-of-addition assay: Detection time dependent on cyclodextrin addition prior to brief interaction of enzymes with SDS. Since SDS rapidly and irreversibly inactivated 9° Nm™ DNA polymerase, when the enzyme is instead simultaneously exposed to SDS and β-CD, the kinetics of complexation of the latter two substances must be very rapid, compared with the rate of interaction between SDS and the enzyme.
FIG. 6 depicts data related to detection of S. enterica DNA target (50,000 copies) by APA reactions in a wet “hot-start” format mediated by CleanAmp™ deoxynucleotides (CAdNTP) containing Tris pH7.6, KCl, (NH4)2SO4, MgSO4, Triton X-100, SYBRI, CAdNTP, 9° Nm™ DNA polymerase, with additions of 0.4% SDS (X), 4% hydroxypropyl β-CD (squares), SDS then immediately β-CD (circles), or β-CD then SDS (solid line) with mixing. Control (ctrl dotted line) was no additions. All samples included DNA target. Isothermal APA was at 68° C., collecting intercalating dye fluorescence every 15 seconds to monitor all exponential DNA amplification. […] Negative controls for each condition without S. enterica DNA confirmed specificity of indicated amplification products (not shown).

[4] = molecular target: T1, RNase A (Bos taurus, UniProt P61823); test: RNase Alert assay of RNase A activity recovery after SDS/DTT pretreatment; type: biochemical; details: 2 ng RNase A, 2 minutes at 58° C.; 10 mM DTT and/or 0.2% SDS; then 4% βCD
T1 sequence (P61823 27-150): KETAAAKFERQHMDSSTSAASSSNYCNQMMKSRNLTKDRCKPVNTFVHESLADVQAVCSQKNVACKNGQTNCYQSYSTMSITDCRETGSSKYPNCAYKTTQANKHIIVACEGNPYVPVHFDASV
Procedure: 2 ng RNase A was incubated 2 minutes at 58° C. in […] solutions containing either 10 mM DTT+0.2% SDS (+), 0.2% SDS (triangle), 10 mM DTT (square), or neither (solid line) and then the RNase Alert assay was used to study the recovery of any RNase activity upon sequestration of SDS after dissolving lyophilized APA reagents without enzymes but containing RNase Alert substrate and protective agent (4% βCD) with continued incubation and fluorescence data collection at 58° C. In the presence of RNase activity, the RNase alert indicator substrate releases detectable fluorescence. […] FIG. 11A depicts recovery of RNase A activity after identical pretreatment without addition of βCD, in this case monitoring activity in […] of the solution by transfer to an RNase alert “wet” reaction format. […] Thus, as shown here, simultaneous treatment with ionic detergent and reducing agent is required for successful irreversible inactivation under the conditions described herein. […] Without being bound by any particular theory, this may be related to the impact of cyclodextrin and other APA additives on the refolding process. This example also provides further confirmation that the prior art and currently available methods (e.g, employing a reducing agent but no denaturant) are inadequate under these conditions, with an independent, commercially available RNase assay.

[5] = molecular target: Taq polymerase (Thermus aquaticus, UniProt P19821); details: cited from earlier work
[6] = system: nasal swab ribonucleases; test: Protection of RNA from nasal swab ribonucleases (influenza B RNA APA); type: biochemical, human
[7] = molecular target: T1, RNase A; test: Influenza B virus APA assay with RNase A in ELB (Elution/Lysis Buffer); type: biochemical; details: RNAse A 10 μg/ml; 2 minutes 58° C. in ELB with 0.2% SDS, without or with 10 mM DTT; β-CD 4% final
Procedure: FIGS. 12A-12B depict data related to RNase A inactivation in an influenza B assay like the one in Example 4, with DTT in ELB (Elution/Lysis Buffer). […] After incubation, lyophilized APA reagents co-incubated 2 minutes 58° C., containing β-CD (4% final) were dissolved with the heated solutions, and FAM fluorescence collected every 15 seconds to monitor APA. […] The inclusion of DTT enables unimpeded operation of this POC influenza detection system in a mock sample containing very high level of purified RNase A ([…]). Moreover, while currently available methods can only achieve irreversible ribonuclease inactivation at a maximum 200 ng/ml, the compositions and methods provided herein show utility with 10 μg/ml to accommodate potentially larger amounts in patient samples.

[8] = molecular target: T1, RNase A; test: Requirements for irreversible RNase inactivation (influenza B RNA APA in presence of RNase A); type: biochemical; details: 500 ng RNase A (10 μg/ml); additions 0.2% SDS, 10 mM DTT, 0.1% Triton X-100 as labelled; 2 minutes at 58° C.; then 4% βCD

Chain of 9° Nm™ DNA polymerase (Q56366 whole entry E143D): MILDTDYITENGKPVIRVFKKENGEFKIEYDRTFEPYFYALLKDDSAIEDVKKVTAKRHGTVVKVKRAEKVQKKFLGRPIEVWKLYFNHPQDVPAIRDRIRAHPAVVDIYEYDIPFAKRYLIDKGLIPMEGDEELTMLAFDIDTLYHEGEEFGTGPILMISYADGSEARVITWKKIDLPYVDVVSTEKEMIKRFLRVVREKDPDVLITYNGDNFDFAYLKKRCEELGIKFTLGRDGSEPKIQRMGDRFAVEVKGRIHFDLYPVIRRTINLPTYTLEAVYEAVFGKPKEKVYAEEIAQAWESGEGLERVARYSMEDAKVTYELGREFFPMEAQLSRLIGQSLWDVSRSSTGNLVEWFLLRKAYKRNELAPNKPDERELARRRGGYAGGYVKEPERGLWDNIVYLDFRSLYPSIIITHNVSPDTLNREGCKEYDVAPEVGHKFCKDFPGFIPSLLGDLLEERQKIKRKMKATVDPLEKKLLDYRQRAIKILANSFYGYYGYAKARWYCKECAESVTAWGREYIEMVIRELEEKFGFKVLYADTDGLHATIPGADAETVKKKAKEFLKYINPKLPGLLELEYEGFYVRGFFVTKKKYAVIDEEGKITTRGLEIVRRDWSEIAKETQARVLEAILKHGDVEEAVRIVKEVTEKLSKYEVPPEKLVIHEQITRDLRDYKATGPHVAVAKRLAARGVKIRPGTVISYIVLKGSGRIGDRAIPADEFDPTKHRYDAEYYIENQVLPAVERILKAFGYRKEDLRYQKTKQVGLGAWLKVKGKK
Chain of Taq polymerase (P19821 whole entry): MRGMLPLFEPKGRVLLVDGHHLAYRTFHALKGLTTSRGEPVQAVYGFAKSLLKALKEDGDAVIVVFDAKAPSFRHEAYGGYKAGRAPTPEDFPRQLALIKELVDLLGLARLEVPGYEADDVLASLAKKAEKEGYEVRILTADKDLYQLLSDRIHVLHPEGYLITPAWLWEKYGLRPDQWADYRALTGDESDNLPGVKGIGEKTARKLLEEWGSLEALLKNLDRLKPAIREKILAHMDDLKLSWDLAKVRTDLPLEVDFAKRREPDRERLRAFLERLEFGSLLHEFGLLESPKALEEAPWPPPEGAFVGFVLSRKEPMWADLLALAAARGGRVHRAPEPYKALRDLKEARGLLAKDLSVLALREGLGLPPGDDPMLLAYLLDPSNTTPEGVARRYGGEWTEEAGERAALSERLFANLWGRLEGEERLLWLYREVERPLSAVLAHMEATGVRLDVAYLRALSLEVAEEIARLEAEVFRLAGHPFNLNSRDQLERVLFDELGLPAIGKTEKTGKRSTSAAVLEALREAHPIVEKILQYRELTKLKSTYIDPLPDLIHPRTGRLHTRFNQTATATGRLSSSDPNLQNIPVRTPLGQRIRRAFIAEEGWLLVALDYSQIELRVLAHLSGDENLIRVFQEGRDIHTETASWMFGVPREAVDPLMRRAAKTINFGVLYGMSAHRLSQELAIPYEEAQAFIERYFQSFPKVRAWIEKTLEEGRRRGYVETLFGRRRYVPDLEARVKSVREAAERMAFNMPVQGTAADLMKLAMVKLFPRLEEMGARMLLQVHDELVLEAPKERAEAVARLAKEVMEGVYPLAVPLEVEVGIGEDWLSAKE

With `CCCCCCCCCCCCOS(=O)(=O)[O-].[Na+]` [SDS, sodium dodecyl sulfate] the “Liberation of target DNA from elementary bodies (lysis)” value [1] was “as effective in liberating target DNA as the heat lysis”, the “Reversibility of nasal RNase inactivation after SDS sequestration” value [2] was “virtually completely reversible” and the “Effect on APA amplification” value ([3]; 0.4% SDS alone, S. enterica DNA 50,000 copies) was “Barrier to amplification”. For the same compound, the “Effect on 9° Nm™ DNA polymerase” value ([3]; 0.4% SDS then immediately β-CD (brief exposure)) was “sufficient to inactivate”, the “Recovery of RNase A activity after pretreatment, with βCD” value [4] was “virtually full recovery of enzyme activity” and the “SDS concentration with inhibitory effect for PCR with Taq polymerase” value [5] was “greater than 0.01 % (w/v)”. For the same compound, the “RNA detectability eliminated by recovered RNase activity (assay calibration)” value ([6]; 0.2% SDS without DTT, 2-minute incubation at 58° C.) was greater than 95%, the “Influenza B RNA detection after nasal swab eluate pretreatment and SDS sequestration” value ([6]; nasal swab eluate 4% of swab, 0.2% SDS with or without 10 mM DTT, 2 minutes at 58° C., then 4% βCD) was “no detection” and the “Influenza B virus APA performance in presence of RNAse A” value [7] was “recovery of inhibitory levels of RNAse A”. The “Influenza B RNA detection by APA after RNase A pretreatment” value [8] was “did not prevent significant restoration of RNase A activity”.
